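The compound was tested at five concentrations on cells cultured in 96-well plates, with a 48-hour exposure period. TGI marks complete inhibition of growth.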
Key:
Experiment in all cases: NCI tumour cell line growth inhibition, 48 h
XF 498 CNS = tested on: XF 498 CNS
MCF7 breast = tested on: MCF7 breast
T-47D breast = tested on: T-47D breast

`Cc1cc2n([O-])cccc-2[n+](=O)c1` showed a TGI (XF 498 CNS) greater than 100 µM.

With `COc1cc2cc(C(=O)N3CC(CCl)c4c3cc([N+](C)(C)Cc3ccc([N+](=O)[O-])n3C)c3ccccc43)[nH]c2c(OC)c1OC` (stereo not drawn) the TGI (MCF7 breast) was 12.5 µM and the TGI (T-47D breast) was 38.9 µM.
